Legend:
[1] = system: functional bowel disease (IIHVN), ovaries removed; assay: Effective dose of leuprolide acetate in patients having previous ovariectomy; type: in vivo, human
Source text: Two patients discussed in Example 1 were women who had undergone surgery for removal of their ovaries. The first patient, Number 3, had undergone this surgery approximately two years prior to beginning Leuprolide acetate treatment. The second patient, Number 4, underwent ovariectomy 18 months […] beginning treatment with Leuprolide Acetate. In both cases, the effective dose of leuprolide acetate was higher than the effective dose required by patients who had not had ovaries removed.

end-stage scleroderma = assay: Treatment of end stage scleroderma with leuprolide acetate; type: in vivo, human; details: Patient 6, 0.5 mg daily s.c.
Experimental: Patient number 6 was in end-stage scleroderma. They had been bed-ridden for approximately eight months, unable to retain food after eating, and was being maintained on total parental hyperalimentation (TPN) to keep up body weight and fluid and electrolyte balance for five months. This patient was treated with 0.5 mg Leuprolide acetate daily, by subcutaneous injection according to the protocol of example 1.

[2] = system: migrating motor complexes, jejunum; assay: Leuprolide acetate effects on migrating motor complexes in rats; type: in vivo, female Wistar rats; details: for Migrating Motor Complexes, L-Fasted / Migrating Motor Complexes, L-Fed: mean ± SEM
Experimental: Eleven female Wistar rats weighing between 175 and 250 g were each implanted with four bipolar Ag/AgCL electrodes (the preparation of which is described in: Mathias, Am. J. Physiology, 249:[…]-[…], 1981). The electrodes were sewn 5 cm from the Ligament of Trietz and 5 cm apart, onto the jejunal serosa. The number of migrating myoelectric complexes was recorded using a R-612 Dynograph (Sensor-Medics, Anaheim, Calif.). Rats were fasted for 36 hours prior to recording and feeding (no food, liberal water), and were housed in special cages to remove feces. After 36 hours of fasting, Migrating Motor Complexes (MMC) were recorded at a sensitivity of 0.2 mV/cm, 2.5 mm/sec paper speed, and a Time Constant of 1 for a duration of 2 to 4 hours. Immediately following the fasted recording session, the rats were fed 2 biscuits of Purina rat chow with simultaneous recording during feeding and continued for 4 hours. This procedure was followed for 2 to 4 recording sessions prior to the treatment with leuprolide acetate (Controls). Leuprolide acetate was then administered daily, in the morning, subcutaneously in the hind limb at a dose ranging from 2 to 40 ug/100 g body weight. After a period of at least 24 hours post treatment with leuprolide, the fasting/fed recording sessions were begun as described for the controls to obtain recordings through 2 to 4 sessions.

[3] = system: serum estradiol, progesterone, LH, FSH; assay: Serum estradiol, progesterone, FSH and LH by radioimmunoassay before and after three months of leuprolide; type: in vivo, human; details: for Estradiol after 3 months / Progesterone after 3 months / FSH after 3 months / LH after 3 months: serum
Source text: The symptoms of the two patients with GMD were abdominal pain located in the right upper quadrant and epigastrium, daily nausea, and intermittent vomiting exacerbated by eating and by the luteal phase of the menstrual cycle. The two patients with IIHVN had abdominal pain, nausea, and intermittent vomiting, and also had urinary tract involvement consisting of pain and a decrease in urination. The fifth patient had Roux-en-Y syndrome (defined as epigastric-to-right-upper-quadrant pain, nausea, and vomiting increased by eating) after surgical construction of a gastro-jejunal Roux-en-Y anastomosis. The mean duration of these symptoms was eight years (Table 1). All subjects had undergone extensive blood testing, several upper gastrointestinal x-ray series, barium enemas, esophagogastroduodenoscopy, endoscopic retrograde cholangiopancreatography, gastric emptying tests with radiolabeled meal, ultrasound of the abdomen, computerized axial tomography of the abdomen, and many other tests. The results of all tests were normal, except for prolonged gastric emptying in the patient with the Roux-en-Y Syndrome. Because of their intractable clinical problem, these patients were included in the test protocol with leuprolide acetate. Protocol: The symptoms of each patient were first assessed, and their tests evaluated. Each patient kept a daily symptom diary. Leuprolide acetate was obtained by prescription as Lupron (TAP pharmaceuticals, Abbott Labs, North Chicago, Ill.). One multi-use vial of Lupron comprised of […] Leuprolide Acetate. A daily dose of 0.5 mg ([…]) was self-administered by subcutaneous injection, for a period of three months. Each patient was examined at 0, 1 and 3 months of treatment. After the third month, leuprolide was continued as previously, and estrogen (0.625 mg orally) and calcium (1000 mg orally) were also administered. At the end of the sixth month, a two week withdrawal period from leuprolide acetate ensued. During this period a 10 mg oral dose of progesterone was given to pre-menopausal patients, to assess recurrence of symptoms and to induce menses. Post-menopausal women were not treated with progesterone during the two week withdrawal period. This procedure was then continued for an additional six months, with drug withdrawal and progesterone given every three months to induce a menstrual cycle. Serum estradiol, progesterone, FSH, and LH were quantitated by radioimmunoassay prior to the initiation of leuprolide treatment, and at three months post treatment initiation.

[4] = after three months of treatment vs baseline

`CCNC(=O)[C@@H]1CCCN1C(=O)[C@H](CCCNC(=N)N)NC(=O)[C@H](CC(C)C)NC(=O)[C@@H](CC(C)C)NC(=O)[C@H](Cc1ccc(O)cc1)NC(=O)[C@H](CO)NC(=O)[C@H](Cc1c[nH]c2ccccc12)NC(=O)[C@H](Cc1c[nH]cn1)NC(=O)[C@@H]1CCC(=O)N1` [Leuprolide acetate, leuprolide acetate] was tested, and the “Daily dose needed to overcome symptoms” value ([1]; Patient 3, ovaries removed, initially 0.5 mg) was 2.0 mg, the “Effective daily dose that relieved symptoms” value ([1]; Patient 4, post-ovariectomy) was 2.0 mg and the “Sufficiency of daily dose of 0.5 mg” value ([1]; Patient 4, post-ovariectomy) was “not sufficient”. For the same compound, the “Symptoms at daily dose of 0.5 mg” value ([1]; Patient 4, prior to the removal of their ovaries) was “symptom free”, the “Effective dose compared with patients who had not had ovaries removed” value ([1]; Patients 3 and 4) was “higher” and the “Eating and body weight at discharge” value (end-stage scleroderma) was “eating without difficulty, and had gained weight”. For the same compound, the “Need for TPN feeding after five weeks of therapy” value (end-stage scleroderma) was “did not require the TPN feeding”, the “Mobility after five weeks of therapy” value (end-stage scleroderma; bed-ridden before) was “able to move about actively” and the “Migrating Motor Complexes, L-Fasted” value ([2]; 2 μg/100 g body weight s.c. daily, control fasted 4.69 ± 0.24) was 4.60 ± 0.12 MMC/hour. For the same compound, the “Migrating Motor Complexes, L-Fed” value ([2]; 2 μg/100 g body weight s.c. daily, control fed 2.60 ± 0.27) was 4.83 ± 0.65 MMC/hour, the “Migrating Motor Complexes, L-Fasted” value ([2]; 20 μg/100 g body weight s.c. daily, control fasted 4.43 ± 0.25) was 5.41 ± 0.17 MMC/hour and the “Migrating Motor Complexes, L-Fed” value ([2]; 20 μg/100 g body weight s.c. daily, control fed 1.40 ± 0.48) was 4.11 ± 0.22 MMC/hour. The “Migrating Motor Complexes, L-Fasted” value ([2]; 40 μg/100 g body weight s.c. daily, control fasted 4.75 ± 0.48) was 4.48 ± 0.12 MMC/hour, the “Migrating Motor Complexes, L-Fed” value ([2]; 40 μg/100 g body weight s.c. daily, control fed 2.33 ± 0.33) was 3.45 ± 0.25 MMC/hour and the “Dose at which the fed state was replaced by cycling MMCs (as little as)” value ([2]; fed rats) was 2 μg/100 g body weight. For the same compound, the “Estradiol after 3 months” value ([3]; Patient 1, baseline 44.0 pg/ml) was 13.0 pg/mL, the “Progesterone after 3 months” value ([3]; Patient 1, baseline 3.0 n/ml) was under 0.25 n/ml and the “FSH after 3 months” value ([3]; Patient 1, baseline 12.1 mIU/ml) was 9.0 MIU/ml. The “LH after 3 months” value ([3]; Patient 1, baseline 19.0 mIU/mL) was 6.0 mIU/ml, the “Estradiol after 3 months” value ([3]; Patient 2, baseline 44.0 pg/ml) was 39.0 pg/mL and the “Progesterone after 3 months” value ([3]; Patient 2, baseline 1.0 n/ml) was under 0.25 n/ml. The “FSH after 3 months” value ([3]; Patient 2, baseline 13.0 mIU/ml) was 11.0 MIU/ml, the “LH after 3 months” value ([3]; Patient 2, baseline 16.0 mIU/ml) was 7.0 mIU/ml and the “Estradiol after 3 months” value ([3]; Patient 3, baseline 28.0 pg/ml) was 3.4 pg/mL. The “LH after 3 months” value ([3]; Patient 3, baseline 18.4 mIU/ml) was 11.2 mIU/ml, the “FSH after 3 months” value ([3]; Patient 3, baseline 32.0 mIU/ml) was 11.2 mIU/ml and the “Progesterone after 3 months” value ([3]; Patient 3, baseline <0.25 n/ml) was under 0.25 n/ml. The “Estradiol after 3 months” value ([3]; Patient 4, baseline 20.0 pg/ml) was 5.5 pg/mL, the “Progesterone after 3 months” value ([3]; Patient 4, baseline 3.0 n/ml) was under 0.25 n/ml and the “FSH after 3 months” value ([3]; Patient 4, baseline 13.1 mIU/ml) was 7.9 mIU/ml. For the same compound, the “LH after 3 months” value ([3]; Patient 4, baseline 18.3 mIU/ml) was 5.0 MIU/ml, the “Estradiol and FSH levels” value [3, 4] was “decreased” and the “Levels of serum progesterone and LH” value [3, 4] was “significant decrease”.
